The subject of one series is RAW 264.7 macrophages. In words: LPS-induced inflammatory gene expression (qRT-PCR) in RAW 264.7 macrophages. The series is classed as cell-based. The conditions noted are these: LPS 1 µg/ml for 3 h. Here is the method: (§1) RAW 264.7 macrophages or BMDMs were seeded at a density of 250,000 cells per well into a 12-well tissue culture plate in 1 ml of media and left to incubate overnight. The indicated drug or vehicle control was added to each well, and the plate was agitated and left to incubate for 10 min. The cells were then treated with LPS (1 μg/ml) or an equivalent volume of PBS, agitated, and left to incubate for 3 h. Cells were washed with PBS and then RNA isolation was performed using RNeasy Plus Micro Kit (74134; Qiagen). cDNA was produced using GoScript Reverse Transcriptase ([…]; Promega) and a quantitative PCR was performed using SensiFast SYBR (98020; Bioline) and Bio-Rad CFX Connect thermocycler. Each datum represents an individual, biological replicate that is the mean of duplicate technical replicates. Fold-changes are all reported relative to untreated controls for each experiment and were calculated using the ΔΔCt method, with β2-microglobulin used as the housekeeping gene for each sample. The experiment was performed similarly with BV-2 microglia and alveolar macrophages, except that cells were plated at a density of 100,000 cells per well into a 24-well tissue culture plate with 1 ml of media per well.

The next series relates to BV-2 microglia. In words: LPS-induced cytokine expression in BV-2 microglia (qRT-PCR). The series is classed as cell-based, mouse. The conditions noted are these: 10 µM pretreatment, LPS 1 µg/ml for 3 h. The method, then: as §1
Series [1] has as its system LPS-induced endotoxemia in mice. In words: Sublethal LPS-induced peritonitis (endotoxemia) mouse model. The series is classed as in vivo. Here is the method:
12-wk-old WT C57BL/6J mice were purchased from Jackson Laboratory (Strain #000664). An equal number of male and female mice were randomly assigned to each treatment group. All studies were conducted according to a protocol approved by the University of Virginia Animal Care and Use Committee. Mice were socially housed with littermate controls and provided with free access to a standard chow diet and water. Baseline weights were taken <1 h prior to the experiment for individual dose calculations. For the sublethal model, mice were injected intraperitoneally with LPS (1 mg/kg), VPC01091.4 (30 mg/kg), both LPS and VPC01091.4, or vehicle alone (20% 2-hydroxypropyl-β-cyclodextrin in PBS). The volume injected was 200 μl and solutions were sterile-filtered (0.45 µm) prior to use. […] Mice were euthanized at 4 h, then blood was collected via cardiac puncture and anticoagulated with K2EDTA. […] The lungs were dissected, coarsely homogenized, and partitioned into separate samples for RNA extraction and mass spectrometry analysis. Samples to be used for RNA were stored at −20°C in RNAlater Stabilization Solution (AM7021; Thermo Fisher Scientific) while samples for use in mass spectrometry were flash-frozen in liquid nitrogen. Whole brains were physically dissected, coarsely homogenized, and stored for later processing as with the lung tissue. 10 μl of each whole blood sample was reserved for mass spectrometry analysis, 15 μl was used to obtain lymphocyte counts with a Hematology Analyzer (Heska Element HT5), and the remainder was used to produce plasma through centrifugation at 2,000 × g for 15 min at 4°C. Plasma cytokines were then measured using a multiplex mouse proinflammatory cytokine panel performed by the University of Virginia Flow Cytometry Core (RRID: SCR_017829). Cytokine values beyond the limit of detection (LOD) are reported as the LOD value. Tissue RNA was isolated from preserved samples using 30 min of automated homogenization at 30 Hz with 5-mm ball-bearings in RLT Plus Lysis Buffer (TissueLyser II; Qiagen); RNA was then isolated using a RNeasy Plus Micro Kit (74134; Qiagen). Whole-tissue cytokine expression changes were then measured using qRT-PCR as with ex vivo cell culture experiments. For the lethal dose model, mice were injected with LPS (25 mg/kg), both LPS and VPC01091.4, or vehicle alone (20% 2-hydroxypropyl-β-cyclodextrin in PBS). Symptoms were scored according to a standardized clinical score sheet that assessed conjunctivitis, lethargy, degradation in hair grooming behavior, stool changes, and facial grimace (Table 1). Mice that lost >20% of their starting body weight or received a clinical score of 8 or greater were euthanized.

For a further series, the system named is lymphocytes. More on the design: method as in Brinkmann et al., 2002; Zhu et al., 2007. The conditions noted are these: ref Brinkmann et al., 2002; Zhu et al., 2007; cited from earlier work.
Where [2] appears, read: LPS 1 mg/kg + 30 mg/kg i.p., 4 h, vs LPS.
[3] abbreviates: whole-brain qRT-PCR, LPS 1 mg/kg + 30 mg/kg i.p., 4 h, vs LPS.

Turning to `CCCCCCCCc1ccc([C@@H]2CC[C@@](N)(CO)C2)cc1` [VPC01091.4, ((1S,3R)-1-amino-3-(4-octylphenyl)cyclopentyl)methanol], in the series on RAW 264.7 macrophages (5 µM pretreatment), the “LPS-stimulated IL-1β gene expression” value is reported as “almost completely abrogated”. Also, the “LPS-stimulated IL-1β gene expression” value in the series with RAW 264.7 macrophages (10 µM pretreatment) is on record as “almost completely abrogated”. In the series with BV-2 microglia, the “LPS-induced inflammatory cytokine expression” value was “direct anti-inflammatory effects”. Also, the Tolerability in mice entry in series [1] (30 mg/kg i.p.) is reported as “well-tolerated”. Moreover, in series [1] (30 mg/kg i.p., 4 h, between treatment groups), the Absolute lymphocyte counts result is “no significant differences”. Moreover, the “Plasma IL-10” value in series [1] (LPS 1 mg/kg + 30 mg/kg i.p., 4 h) is “higher levels”. In addition, in series [1] (setting [2]), the “Plasma IFNγ” value was “significantly suppressed”, the “Plasma IL-1β” value was “significantly suppressed” and the “Plasma TNFα” value is “significantly suppressed”. Moreover, in series [1] (setting [3]), the “Brain expression of CCL4” value was “significantly suppressed”, the “Brain expression of IL-1β” value was “significantly suppressed”, the “Brain expression of IL-6” value is recorded as “significantly suppressed” and the “Brain expression of TNFα” value is “significantly suppressed”. Further, in series [1] (whole-lung qRT-PCR, LPS 1 mg/kg + 30 mg/kg i.p., 4 h, vs LPS), the “Lung expression of IL-6” value is recorded as “non-significantly lower”. The “Lymphopenia when administered to mice” value in the series on lymphocytes is listed as “do not evoke lymphopenia”.

The values are drawn from paper PMC10635799, “Analogs of FTY720 inhibit TRPM7 but not S1PRs and exert multimodal anti-inflammatory effects” (The Journal of General Physiology, 2023).
